Residues, ends and D or L forms follow the SMILES beside them.
target: HCV glycoprotein E1E2-mediated membrane fusion (Hepatitis C virus genotype 1a, UniProt P27958); assay: cell-based; format: cell-based, Hepatitis C virus (strain H77); conditions: not given
Sequence (P27958 384-746): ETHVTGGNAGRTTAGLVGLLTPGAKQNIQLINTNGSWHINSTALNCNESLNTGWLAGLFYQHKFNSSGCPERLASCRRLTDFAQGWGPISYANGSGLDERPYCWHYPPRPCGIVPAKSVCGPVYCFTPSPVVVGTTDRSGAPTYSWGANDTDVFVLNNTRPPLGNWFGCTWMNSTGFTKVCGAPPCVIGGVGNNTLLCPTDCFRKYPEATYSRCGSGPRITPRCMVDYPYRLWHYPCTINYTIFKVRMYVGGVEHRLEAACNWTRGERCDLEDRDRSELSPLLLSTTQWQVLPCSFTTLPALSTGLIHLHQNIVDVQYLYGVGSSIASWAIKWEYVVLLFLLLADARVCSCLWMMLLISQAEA
Sequence (P27958 192-383): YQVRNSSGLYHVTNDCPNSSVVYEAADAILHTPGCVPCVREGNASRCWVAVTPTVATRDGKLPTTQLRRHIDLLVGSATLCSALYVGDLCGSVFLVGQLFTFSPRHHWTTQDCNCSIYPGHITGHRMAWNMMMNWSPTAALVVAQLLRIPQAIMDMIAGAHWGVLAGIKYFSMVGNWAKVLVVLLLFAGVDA

Row | Compound | EC50 [µM]
1 | CC[C@H](C)[C@H](NC(=O)[C@H](C)NC(=O)[C@H](Cc1c[nH]c2ccccc12)NC(=O)[C@H](CO)NC(=O)[C@H](C)NC(=O)[C@@H](NC(=O)[C@H](CO)NC(=O)[C@H](CO)NC(=O)CNC(=O)[C@@H](NC(=O)CNC(=O)[C@H](Cc1ccc(O)cc1)NC(=O)[C@H](CC(C)C)NC(=O)[C@H](Cc1ccc(O)cc1)NC(=O)[C@H](CCC(N)=O)NC(=O)[C@@H](NC(=O)[C@H](CC(=O)O)NC(=O)[C@@H](NC(=O)[C@@H](NC(=O)[C@H](CC(N)=O)NC(=O)[C@H](CCC(N)=O)NC(=O)[C@H](Cc1c[nH]cn1)NC(=O)[C@H](CC(C)C)NC(=O)[C@H](Cc1c[nH]cn1)NC(=O)[C@@H](NC(=O)[C@H](CC(C)C)NC(=O)CNC(=O)[C@@H](NC(=O)[C@H](CO)NC(=O)[C@H](CC(C)C)NC(=O)[C@H](C)NC(=O)[C@@H]1CCCN1C(=O)[C@H](CC(C)C)NC(=O)[C@@H](N)[C@@H](C)O)[C@@H](C)O)[C@@H](C)CC)[C@@H](C)CC)C(C)C)C(C)C)C(C)C)[C@@H](C)CC)C(=O)N[C@@H](CCCCN)C(=O)O [E28] (H-TLPALSTGLIHLHQNIVDVQYLYGVGSSIASWAIK-OH; N-terminus and C-terminus assumed) | > 20

same assay, conditions: Cre/stop fusion system, peptide 1 µM, luciferase divided by solvent control (0.5% DMSO)

Row | Compound | % of fusion
2 | QAVVDMVAGAHWGVLAGLAYYSMVGNWAKV [HCV-11, 30-mer of overlapping E1E2 peptide library] | 121.6%
3 | VTGGTM AKNTLGI TSLFSP GSSQKIQLVNT [HCV-14, 30-mer of overlapping E1E2 peptide library] | 69.6%
4 | RCWVALTP TLAARNASVP TTTIRRHVDLLV [HCV-4, 30-mer of overlapping E1E2 peptide library] | 85.2%
5 | CSNASIVYEAADMIMHTP GC VP CVRENNSS [HCV-2, 30-mer of overlapping E1E2 peptide library] | 80.8%
6 | SP TAALVVSQLLRIP QAVVDMVAGAHWGVL [HCV-10, 30-mer of overlapping E1E2 peptide library] | 78.8%
7 | CTWMNSTGF TKTC GGP P CNIGGI GNKTLTC [HCV-25, 30-mer of overlapping E1E2 peptide library] | 87.4%
8 | P TDCF RKHP EATY TKC GS GP W LTP RCLV HY [HCV-27, 30-mer of overlapping E1E2 peptide library] | 65.1%
9 | HVTGHRMAWDMMMNWSP TAALVVSQLLRIP [HCV-9, 30-mer of overlapping E1E2 peptide library] | 56.9%
10 | IDAF AQGWGP ITYNESHSSDQRP YCWHYAP [HCV-19, 30-mer of overlapping E1E2 peptide library] | 129.8%
11 | AAC NW TR GERCN LEDRDRS E LS P LLLS TTE [HCV-31, 30-mer of overlapping E1E2 peptide library] | 56.9%
12 | FKVRMYVGGVEHRLE AACNWTRGERCNLED [HCV-30, 30-mer of overlapping E1E2 peptide library] | 99.6%
13 | LYGIGS AVVSFAIKWEYVLLLFLLLADARV [HCV-35, 30-mer of overlapping E1E2 peptide library] | 40.0%
14 | GAAALCSAMYV GDLC GSVFLVAQLF TFSP R [HCV-6, 30-mer of overlapping E1E2 peptide library] | 81.5%
15 | SHSSDQRP YCWHYAP RP CGI VP AAQVC GP V [HCV-20, 30-mer of overlapping E1E2 peptide library] | 65.8%
16 | GSVFLVAQLFTFSPRRHETVQDCNCSIYPG [HCV-7, 30-mer of overlapping E1E2 peptide library] | 85.5%
17 | RDRS ELS P LLLS TTEW QV LP CS F TTLP ALS [HCV-32, 30-mer of overlapping E1E2 peptide library] | 11 . 2%
18 | EYVLLLFLLLADARVCACLWMMLLIAQAEA [HCV-36, 30-mer of overlapping E1E2 peptide library] | 10.7%
19 | FNSSGCPERMASCSPIDAFAQGWGPITYNE [HCV-18, 30-mer of overlapping E1E2 peptide library] | 70.8%

Row | Compound | % of fusion
20 | FGVP TYSWGENE TDVLLLNNTRPP QGNWFG [HCV-23, 30-mer of overlapping E1E2 peptide library] | 145.0%
21 | PPCNIGGI GNKTLTCP TDCFRKHP EATYTK [HCV-26, 30-mer of overlapping E1E2 peptide library] | 121.6%
22 | HTP GCVP CVRENNSSRCWVALTP TLAAR NA [HCV-3, 30-mer of overlapping E1E2 peptide library] | 64.3%
23 | LFSP GSSQKIQLVNTNGS WHI NRTALNCND [HCV-15, 30-mer of overlapping E1E2 peptide library] | 56.0%
24 | TGLIHLHQNVVDVQYLYGI GSAVVSFAIKW [HCV-34, 30-mer of overlapping E1E2 peptide library] | 24.9%
25 | CGS GP WLTP RCLVHYP YRLWHYP CTVNFTI [HCV-28, 30-mer of overlapping E1E2 peptide library] | 82.2%
26 | LIVMLLF AGVDGGTYVTGGTMAKNTLGI TS [HCV-13, 30-mer of overlapping E1E2 peptide library] | 60.1%
27 | RP CGIVP AAQVC GP VYCFTP SPVVVGTTDR [HCV-21, 30-mer of overlapping E1E2 peptide library] | 63.7%
28 | NGS WHINR TALNCNDSLNTGFLAALFYVHK [HCV-16, 30-mer of overlapping E1E2 peptide library] | 64.2%
29 | AGLAYYSMVGNWAKVLIVMLLF AGVDGGTY [HCV-12, 30-mer of overlapping E1E2 peptide library] | 122.8%
30 | SLNTGFLAALFYVHKFNSSGCPERMASCSP [HCV-17, 30-mer of overlapping E1E2 peptide library] | 66.7%
31 | SVP TTTIRRHVDLLV GAAALC SAMYVGDLC [HCV-5, 30-mer of overlapping E1E2 peptide library] | 84.7%
32 | YEVRNVSGVYHVTNDCSNAS IVYEAADMIM [HCV-1, 30-mer of overlapping peptide library covering full-length E1E2 of HCV strain H77] | 56.4%
33 | YCFTP SPVVVGTTDRF GVP TYSWGENETDV [HCV-22, 30-mer of overlapping E1E2 peptide library] | 79.0%
34 | WQVLP CSFTTLP ALS TGLIHLHQNVVDVQY [HCV-33, 30-mer of overlapping E1E2 peptide library] | 9.7%
35 | RHETVQDCNCSIYP GHVTGHRMAWDMMMNW [HCV-8, 30-mer of overlapping E1E2 peptide library] | 76.9%
36 | P YRLWHYP CTVNFTIFKVRMYVGGVEHRLE [HCV-29, 30-mer of overlapping E1E2 peptide library] | 83.2%

system: HCVcc (Jc1-luc); assay: not given; conditions: Huh7.5.1 cells, various concentration ratios, CalcuSyn

Row | Compound | effect on inhibition of HCV infection in combination with E27
37 | COc1ccc2c(O[C@@H]3C[C@H]4C(=O)N[C@]5(C(=O)NS(=O)(=O)C6CC6)C[C@H]5/C=C\CCCCN(C)C(=O)[C@@H]4C3)cc(-c3nc(C(C)C)cs3)nc2c1C [Simeprevir] | slight antagonism
38 | CCC[C@H](NC(=O)[C@@H]1[C@H]2CCC[C@H]2CN1C(=O)[C@@H](NC(=O)[C@@H](NC(=O)c1cnccn1)C1CCCCC1)C(C)(C)C)C(=O)C(=O)NC1CC1 [Telaprevir] | slightly synergistic trend
39 | NC(=O)c1ncn([C@@H]2O[C@H](CO)[C@@H](O)[C@H]2O)n1 [Ribavirin] | slightly synergistic trend
40 | CC(C)OC(=O)[C@H](C)N[P@](=O)(OC[C@H]1O[C@@H](n2ccc(=O)[nH]c2=O)[C@](C)(F)[C@@H]1O)Oc1ccccc1 [Sofosbuvir] | slight antagonism

From paper PMC4848495, “Identification of a Potent and Broad-Spectrum Hepatitis C Virus Fusion Inhibitory Peptide from the E2 Stem Domain” (Scientific Reports, 2016)
